Laboratory results from patent publication US20070142396A1, “Treatment of pain with 1-[3-[4-(3-chlorophenyl)-1-piperazinyl]propyl]-5-methoxy-3,4-dihydro-2(1H)-quinolone or salt thereof” (Vela Pharmaceuticals, Inc., priority 2005, published 2007).

System: rats with spinal nerve ligature (Chung neuropathic pain model)
Test: Chung spinal nerve ligation (L5 and L6) neuropathic pain model, tactile stimulation with electronic Von Frey probe (Example 2)
Format: in vivo, rat
Conditions: for Force Inducing Paw Withdrawal (g) Lesioned Paw / Force Inducing Paw Withdrawal (g) Non-lesioned Paw: hypersensitivity test after 8 days of twice daily administration
From the text: The Chung neuropathic pain model (Kim and Chung, Pain, 50: 355-363, 1992), employs spinal nerve ligation (SNL) in a rat. Tight ligature of spinal nerves in a rat is associated with hyperalgesia, allodynia and spontaneous pain. Antihyperalgesics reduce these chronic signs of pain hypersensitivity. Thus, the Chung model permits testing of the antihyperalgesic activity of compounds in rats with neuropathic pain. The Chung model constitutes a model for peripheral neuropathic pain in humans, and was employed as follows.
Male Rj: Wistar (Han) rats, weighing 264-369 g at the beginning of the experiment, were obtained from Elevage Janvier, 53940 Le Genest-Saint-Isle, France. The rats were acclimatized to laboratory conditions for at least 5 days before the surgery phase of the experiment. The rats were housed in groups of five in macrolon cages (41×25×14 cm) on wood litter (Litalabo—SPPS, 95100 Argenteuil, France) with free access to food (code 113—SAFE, 91360 Epinay-sur-Orge, France) and water until tested. The animal houses were maintained under artificial lighting (12 hours) between 7:00 AM and 7:00 PM in a controlled ambient temperature of 21±3° C., and with relative humidity maintained at 40-70%.
Rats (264-369 g) were anesthetized with sodium pentobarbital (50 mg/kg i.p.), and an incision at the L4-S2 level was made to expose the left L5 and L6 spinal nerves. A ligature was tied tightly around each nerve. The wound was then sutured. The rats received an i.m. injection of 50,000 IU penicillin G and were allowed to recover. At least 2 weeks after the surgery, when the chronic state was fully installed, rats were submitted consecutively to tactile and thermal stimulation of both the non-lesioned and the lesioned hindpaws.
Doses of OPC-14523 were prepared in stock solutions (weight per volume, W/V), then in dilutions (volume per volume, V/V), as appropriate. The compound was dispersed in 0.5% tragacanth in distilled water. Morphine was dissolved in physiological saline as a reference standard for treatment of pain. The solutions for the test and reference substances were prepared fresh on the day of the experiment.
The vehicle, OPC-14523, and reference (morphine) compound were each administered in a volume of 5 ml/kg body weight. The doses of OPC-14523 were expressed in mg of substance per kg body weight and administered orally (p.o.). The vehicle control was also administered orally. The dose of morphine was expressed in mg of hydrochloride salt per kg body weight and administered i.p.
Each animal was tested at 30 minutes, 1 hour, 2 hours and 4 hours after the administration of a substance. Testing occurred in the morning.
To evaluate chronic drug administration and hypersensitivity induction, animals received a second substance treatment in the afternoon, after acute testing. The animals then received twice-daily substance treatment for an additional 9 days. To test for induction of hypersensitivity, the animals were tested, on the ninth day, 30 minutes before the first substance administration in the morning. The effect of chronic administration was tested on the tenth day 30 minutes, 1 hour, 2 hours and 4 hours after the administration of the substance in the morning.
For tactile stimulation, the animal was placed under an inverted Plexiglas® box (17×11×14 cm) on a grid floor. The tip of an electronic Von Frey probe (Bioseb, Model 1610, Chaville, France) was applied with increasing pressure to the non-lesioned hindpaw or the lesioned hindpaw. The force required to induce paw withdrawal was automatically recorded. This procedure was carried out three times for each paw, and the mean force per paw was calculated to provide basic scores per animal.
Prior to receiving drug treatment, all animals were submitted to tactile stimulation and assigned to treatment groups, matched on the basis of their pain response. Each treatment group consisted of eight rats. The testing was performed blind. […]

induction of hypersensitivity (repeated administration, tactile and thermal stimulation): does not induce hypersensitivity
Structure (SMILES): COc1cccc2c1CCC(=O)N2CCCN1CCN(c2cccc(Cl)c2)CC1 [OPC-14523, 1-[3-[4-(3-chlorophenyl)-1-piperazinyl]propyl]-5-methoxy-3,4-dihydro-2(1H)-quinolone]
change of force inducing paw withdrawal vs vehicle (acute, 100 mg/kg p.o., lesioned paw, 1 hour): 107%
effect on force inducing paw withdrawal (acute, 100 mg/kg p.o., lesioned paw, 2 hours): tended to increase
change of force inducing paw withdrawal vs vehicle (acute, 100 mg/kg p.o., non-lesioned paw, 4 hours, p<0.01): −27%
effect on force inducing paw withdrawal (acute, p.o., other doses or time points): no significant effects
effect on force inducing paw withdrawal (chronic, twice daily, after 10 days, p.o., lesioned or non-lesioned paw): did not have clear effects
Force Inducing Paw Withdrawal (g) Lesioned Paw (10 mg/kg p.o.): 17.6 (NS) g
Force Inducing Paw Withdrawal (g) Non-lesioned Paw (10 mg/kg p.o.): 72.9 (NS) g
Force Inducing Paw Withdrawal (g) Lesioned Paw (30 mg/kg p.o.): 15.1 (NS) g
Force Inducing Paw Withdrawal (g) Non-lesioned Paw (30 mg/kg p.o.): 83.5 (NS) g
Force Inducing Paw Withdrawal (g) Lesioned Paw (100 mg/kg p.o.): 16.2 (NS) g
Force Inducing Paw Withdrawal (g) Non-lesioned Paw (100 mg/kg p.o.): 78.1 (NS) g
effect on force inducing paw withdrawal vs vehicle control (hypersensitivity test, repeated treatment at three different doses, lesioned or non-lesioned paw): no significant effects
